Data as given in patent publication US9682966B2, “Kappa opioid ligands” (The Scripps Research Institute, priority 2012, dated 2017).

target: kappa opioid receptor (OPRK1) (Homo sapiens (Human), UniProt P41145); experiment: OPRK1 antagonist assay (b-arrestin-2-TEV / b-lactamase reporter, EC80 U-50488 challenge); type: cell-based; settings: % inhibition to which the printed IC50 value refers, if other than 50%
Sequence (P41145 whole entry): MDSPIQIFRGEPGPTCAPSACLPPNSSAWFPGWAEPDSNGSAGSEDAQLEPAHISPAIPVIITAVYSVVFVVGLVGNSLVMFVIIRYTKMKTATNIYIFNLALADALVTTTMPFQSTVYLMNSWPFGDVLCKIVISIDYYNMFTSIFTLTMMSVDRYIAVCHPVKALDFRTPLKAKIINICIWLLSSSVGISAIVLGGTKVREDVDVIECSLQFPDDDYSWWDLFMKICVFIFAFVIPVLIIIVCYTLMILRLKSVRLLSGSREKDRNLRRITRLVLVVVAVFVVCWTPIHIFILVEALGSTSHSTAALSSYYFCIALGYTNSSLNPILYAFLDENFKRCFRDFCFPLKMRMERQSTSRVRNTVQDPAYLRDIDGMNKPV

| % inhib if other than 50% | SMILES |
| --- | --- |
| 85% | O=C(O)c1cc(Br)cnc1N1CCC(NC2CCCCC2)CC1 [compound 34] |

same assay, conditions: OPRK1 antagonist assay vs EC80 U-50488

| SMILES | IC50 |
| --- | --- |
| CCOC(=O)CCNC1CCN(c2nc3ccc(C)cc3cc2-c2nc(C)no2)CC1 [compound 407] | 341 nM |
| CCc1ccc(-c2cc3cc(C)ccc3nc2N2CCC(NC3CCCCC3)CC2)nn1 [compound 455] | 1640 nM |
| Cc1ccc2nc(N3CCC(NC4CCCC4)CC3)c(-c3ccc(C)nn3)cc2c1 [compound 445] | 55 nM |
| Cc1ccc2nc(N3CCC(NC[C@@H](C)O)CC3)c(-c3noc(C)n3)cc2c1 [compound 423] | 191 nM |
| CCOC(=O)c1c(C(F)(F)F)ccnc1N1CCC(NC2CCCCC2)CC1 [C26] | > 10000 nM |
| CCC(CC)NC1CCN(c2nc3ccc(F)cc3cc2-c2noc(C)n2)CC1 [compound 490] | 248 nM |
| Cc1ccc2nc(N3CCC(NC4CCC[C@@H]4O)CC3)c(-c3nc(C)no3)cc2c1 (stereo partly shown) [compound 372] | 15 nM |
| CO[C@H]1CN(c2ncc(C)cc2-c2nc(C)no2)CC[C@H]1N(C1CCCC1)C1CCCC1 [compound 339] | 29 nM |
| Cc1ccc2nc(N3CCC(NC(C)CC(C)C)CC3)c(-c3nc(C)no3)cc2c1 (stereo not shown) [C72] | > 10000 nM |
| CO[C@@H]1CN(c2nc(C)ccc2-c2noc(C)n2)CC[C@@H]1NC1CCCCC1 [compound 430] | 1000 nM |
| COC(=O)c1cc(Br)cnc1N1CCC(OC2CCCCC2O)CC1 (stereo not shown) [C50] | > 10000 nM |
| COC(=O)c1cc(Br)cnc1N1CCC(N)CC1 [C1] | > 10000 nM |
| COC1CN(c2nc3c(C)cc(C)cc3cc2-c2nc(C)no2)CCC1NCC(C)C (stereo not shown) [compound 365] | 8 nM |
| Cc1ccc2nc(N3CCC(NC(=O)OC(C)(C)C)CC3)c(-c3nc(C)no3)cc2c1 [C71] | > 10000 nM |
| Cc1ccc2nc(N3CCC(NC4CCOC4)CC3)c(-c3ccc(C)nn3)cc2c1 (stereo not shown) [compound 458] | 440 nM |
| Cc1cc(C(=O)N(C)C)c(N2CCC(NC3CCCCC3)CC2)nn1 [compound 400] | 279 nM |
| CCc1noc(-c2cc3cc(C)ccc3nc2N2CC[C@H](NC3CCCCC3)[C@H](OC)C2)n1 [compound 330] | 4.9 nM |
| Cc1cnc(N2CCC(NCC(C)C)CC2)c(-c2nc(C)no2)c1 [compound 393] | 346 nM |
| COC(=O)c1cnc(N2CCC(NC3CCCCC3)CC2)c(N)c1 [C38] | > 10000 nM |
| Cc1cc(-c2noc(C)n2)c(N2CCC(NCC(C)C)CC2)nn1 [compound 431] | 22 nM |

| SMILES | IC50 |
| --- | --- |
| c1cnnc(-c2cc3ccccc3nc2N2CCC(NC3CCCCC3)CC2)c1 [compound 464] | 87 nM |
| COC(=O)c1cc(Br)cnc1N1CCCC(NC2CCCCC2)C1 (stereo not shown) [C14] | > 10000 nM |
| Cc1nc(-c2c(N3CCC(NC4CCCC[C@@H]4O)CC3)nc3ccccc3c2C)no1 (stereo partly shown) [compound 446] | 72 nM |
| CCCCOC(=O)c1cc(Br)cnc1N1CCC(NC2CCCCC2)CC1 [C32] | > 10000 nM |
| COC(=O)c1cc(C2CC2)cnc1N1CCC(NC2CCCCC2)CC1 [C15] | > 10000 nM |
| Cc1noc(-c2cc3cc(C)c(C)cc3nc2N2CCC(NC3CCOCC3)CC2)n1 [C90] | > 10000 nM |
| Cc1ccc2nc(N3CCC(CNC4CCCCC4)CC3)c(-c3nc(C)no3)cc2c1 [C84] | > 10000 nM |
| CO[C@@H]1CN(c2nc(C)c(C)cc2-c2nc(C)no2)CC[C@@H]1NC1CCCCC1 [compound 342] | 48 nM |
| COC(=O)c1cnc(N2CCC(NC3CCCCC3)CC2)c(NS(C)(=O)=O)c1 [C40] | > 10000 nM |
| COC(=O)c1cnc(N2CC[C@@H](NC3CCCCC3)[C@H](O)C2)c(Br)c1 [compound 132] | 4000 nM |
| Cc1noc(-c2ccc(CO)nc2N2CCC(NC3CCCCC3)CC2)n1 [compound 428] | 101 nM |
| CC(=O)c1cc(-c2ccccc2)cnc1N1CC[C@@H](NC2CCCCC2)[C@H](O)C1 [C65] | > 10000 nM |
| Cc1cnc(-c2cc3ccccc3nc2N2CCC(NC3CCOCC3)CC2)o1 [C81] | > 10000 nM |
| Cc1cc(C)c2nc(N3CCC(NCC(C)C)CC3)c(-c3nc(C)no3)cc2c1 [compound 364] | 18 nM |
| CO[C@H]1CN(c2nc3c(C)cc(C)cc3cc2-c2nc(C)no2)CC[C@H]1NC1CCCCC1 [compound 362] | 3 nM |
| Cc1ccc2nc(N3CCC(NC4CCCCCC4)CC3)c(-c3nc(C)no3)cc2c1 [compound 367] | 2 nM |
| Cc1ccc2nc(N3CCC(NC4CCCC4)CC3)c(-c3noc(C)n3)cc2c1 [compound 414] | 9 nM |
| CCc1noc(-c2cc3cc(C)ccc3nc2N2CC[C@@H](NC3CCCCC3)[C@H](O)C2)n1 [compound 335] | 113 nM |
| CO[C@H]1CN(c2nc3ccccc3cc2-c2ccc(C)nn2)CC[C@H]1NC1CCCCC1 [compound 344] | 16.8 nM |
| Cc1ccc2nc(N3CCC(NC4CCCCC4)CC3)c(-c3ccc(C)nn3)cc2c1 [compound 438] | 75 nM |

| SMILES | IC50 |
| --- | --- |
| Cc1ccc2nc(N3CCC(NCC(C)(C)O)CC3)c(-c3noc(C)n3)cc2c1 [compound 412] | 476 nM |
| COC(=O)c1cc(Br)cnc1N1CCC(N2CCN(C)CC2)CC1 [C8] | > 10000 nM |
| COC(=O)c1cnc(N2CCC(NC3CCCCC3)C(O)C2)c(Br)c1 (stereo not shown) [compound 103] | 137 nM |
| CO[C@@H]1CN(c2nc3ccccc3cc2-c2nc(C)no2)CC[C@@H]1NC1CCCCC1 [compound 329] | 12.2 nM |
| CO[C@@H]1CN(c2nc3ccccc3nc2-c2nc(C)no2)CC[C@@H]1NC1CCCCC1 [compound 334] | 161 nM |
| CO[C@H]1CN(c2nnc(C)cc2-c2nc(C3CC3)no2)CC[C@H]1NC1CCCCC1 [compound 456] | 6 nM |
| COC(=O)c1cc(C#N)c(N2CCC(NC3CCCCC3)CC2)nc1C [C55] | > 20000 nM |
| Cc1nc(-c2c(N3CCC(NC4CCOCC4)CC3)nc3ccccc3c2C)no1 [compound 447] | 1150 nM |
| CCc1ccc(-c2cc3cc(C)ccc3nc2N2CCC(NC3CCCC[C@@H]3O)CC2)nn1 (stereo partly shown) [compound 454] | 783 nM |
| COCCOC(=O)c1cc(Br)cnc1N1CCC(NC2CCCCC2)CC1 [C31] | > 10000 nM |
| Cc1ccc2nc(N3CCC(NC4CCCCCC4)CC3)c(-c3noc(C)n3)cc2c1 [compound 415] | 3 nM |
| CNC(=O)c1cc2cc(C)ccc2nc1N1CCC(NC2CCCCC2)C(CO)C1 (stereo not shown) [C89] | > 10000 nM |
| COC(=O)c1cc(Br)cnc1N1CCC(NC2CCCCC2)(C(=O)OC)CC1 [C21] | > 10000 nM |
| COC(=O)c1cc(NC(=O)C(C)(C)C)cnc1N1CCC(NC2CCCCC2)CC1 [C37] | > 10000 nM |
| Cc1ccc2nc(N3CCCC(NC4CCCCC4)CC3)c(-c3nc(C)no3)cc2c1 (stereo not shown) [C80] | > 10000 nM |
| COC(=O)c1cc(Br)cnc1N1CCC(NC2CCC(O)CC2)CC1 (stereo not shown) [C6] | > 10000 nM |
| COC(=O)c1cnc(N2CCC(NC3CCCCC3)CC2)c(Br)c1 [C43] | 15000 nM |
| COC(=O)c1cnc(N2CCC(NC3CCCCC3)CC2)c(NC(C)=O)c1 [C39] | > 10000 nM |
| COC(=O)c1cc(C#N)c(N2CCC(NC3CCCCC3)C(O)C2)nc1C (stereo not shown) [C57] | > 20000 nM |
| CO[C@@H]1CN(c2ncc(C)cc2-n2ccc(C)n2)CC[C@@H]1NC1CCCCC1 [compound 383] | 1160 nM |
